Reference: publication PMC9090415, “Discovery of small molecule inhibitors of Plasmodium falciparum apicoplast DNA polymerase” (Journal of Enzyme Inhibition and Medicinal Chemistry, 2022)

Biological target: P. falciparum apicoplast DNA polymerase (Pf-apPOL) (Plasmodium falciparum, UniProt Q8ILY1)
Assay: Fluorescence-based high-throughput DNA polymerase assay (molecular beacon), primary screen and dose-response
Type: biochemical
Conditions: for DNA Pol: 90 min, 10 µM; for % inhibition apPOL 180' 2.5 / % inhibition apPOL 180' 5 / % inhibition apPOL 180' 10 / % inhibition apPOL 180' 20 / % inhibition apPOL 180' 40 / % inhibition apPOL 180' 80: read at 180'
Outline: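 Single-point screening used 10 µM compound with 20 nM polymerase, 20 nM hairpin substrate and 6 µM dNTPs for 90 min at 25 °C. Confirmatory titrations (2.5–80 µM) followed fluorescence at three times, and IC50 was derived from a fit including a cooperativity term n.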

[1] = "DNA Pol" of the 186 hits list (screen value)

Chain of P. falciparum apicoplast DNA polymerase (Pf-apPOL) (Q8ILY1 entry or part of it): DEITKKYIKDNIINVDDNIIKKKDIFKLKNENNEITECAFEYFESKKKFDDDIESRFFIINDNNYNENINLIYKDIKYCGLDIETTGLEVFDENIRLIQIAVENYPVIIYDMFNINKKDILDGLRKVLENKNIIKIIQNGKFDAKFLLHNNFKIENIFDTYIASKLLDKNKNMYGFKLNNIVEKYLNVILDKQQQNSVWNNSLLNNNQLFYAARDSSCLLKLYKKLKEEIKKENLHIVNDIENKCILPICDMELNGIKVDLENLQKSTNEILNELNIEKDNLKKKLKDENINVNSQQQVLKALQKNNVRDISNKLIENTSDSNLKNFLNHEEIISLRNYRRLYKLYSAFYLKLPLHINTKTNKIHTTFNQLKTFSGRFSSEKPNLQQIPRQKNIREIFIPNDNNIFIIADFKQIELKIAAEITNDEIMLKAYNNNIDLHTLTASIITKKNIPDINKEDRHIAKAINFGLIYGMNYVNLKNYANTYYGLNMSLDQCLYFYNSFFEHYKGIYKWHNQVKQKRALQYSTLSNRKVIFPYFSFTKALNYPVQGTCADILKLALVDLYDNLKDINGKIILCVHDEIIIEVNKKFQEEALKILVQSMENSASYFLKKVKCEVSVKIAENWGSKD

COc1cccc(C(=O)N2CCc3c(nc4cc(-c5ccccc5)[nH]n4c3=O)C2)c1OC [Molecule 22, COc1c(OC)cccc1C(=O)N1CCc2c(C1)nc1n(c2=O)[nH]c(c1)c1ccccc1]
DNA Pol [1]: 45 | % inhibition Apo pol 10' (DRC-1, concentration 2.5): -0.412% | % inhibition Apo pol 10' (DRC-1, concentration 5): 25% | % inhibition Apo pol 10' (DRC-1, concentration 10): 67% | % inhibition Apo pol 10' (DRC-1, concentration 20): 81% | % inhibition Apo pol 10' (DRC-1, concentration 40): 88% | % inhibition Apo pol 10' (DRC-1, concentration 80): 81% | % inhibition Apol 90' (DRC-1, concentration 2.5): -3% | % inhibition Apol 90' (DRC-1, concentration 5): 12% | % inhibition Apol 90' (DRC-1, concentration 10): 49% | % inhibition Apol 90' (DRC-1, concentration 20): 67% | % inhibition Apol 90' (DRC-1, concentration 40): 83% | % inhibition Apol 90' (DRC-1, concentration 80): 84% | % inhibition apPOL 180' (DRC-1, concentration 2.5): -5.7% | % inhibition apPOL 180' (DRC-1, concentration 5): 2.34% | % inhibition apPOL 180' (DRC-1, concentration 10): 32% | % inhibition apPOL 180' (DRC-1, concentration 20): 49% | % inhibition apPOL 180' (DRC-1, concentration 40): 73% | % inhibition apPOL 180' (DRC-1, concentration 80): 78% | % inhibition Apo pol 5' (DRC-2, concentration 2.5): -0.913% | % inhibition Apo pol 5' (DRC-2, concentration 5): 19% | % inhibition Apo pol 5' (DRC-2, concentration 10): 42% | % inhibition Apo pol 5' (DRC-2, concentration 20): 52% | % inhibition Apo pol 5' (DRC-2, concentration 40): 55% | % inhibition Apo pol 5' (DRC-2, concentration 80): 47% | % inhibition Apol 40' (DRC-2, concentration 2.5): -1.15% | % inhibition Apol 40' (DRC-2, concentration 5): 21% | % inhibition Apol 40' (DRC-2, concentration 10): 45% | % inhibition Apol 40' (DRC-2, concentration 20): 61% | % inhibition Apol 40' (DRC-2, concentration 40): 69% | % inhibition Apol 40' (DRC-2, concentration 80): 66% | % inhibition ApPOL 90' (DRC-2, concentration 2.5): 0.469% | % inhibition ApPOL 90' (DRC-2, concentration 5): 20% | % inhibition ApPOL 90' (DRC-2, concentration 10): 44% | % inhibition ApPOL 90' (DRC-2, concentration 20): 61% | % inhibition ApPOL 90' (DRC-2, concentration 40): 70% | % inhibition ApPOL 90' (DRC-2, concentration 80): 70% | % inhibition apPOL 180' (DRC-2, concentration 2.5): -0.311% | % inhibition apPOL 180' (DRC-2, concentration 5): 13% | % inhibition apPOL 180' (DRC-2, concentration 10): 34% | % inhibition apPOL 180' (DRC-2, concentration 20): 53% | % inhibition apPOL 180' (DRC-2, concentration 40): 65% | % inhibition apPOL 180' (DRC-2, concentration 80): 69% | % inhibition Apo pol 10' (first DRC, concentration 10): 67% | % inhibition Apo pol 10' (first DRC, concentration 20): 81% | % inhibition Apo pol 10' (first DRC, concentration 80): 81% | % inhibition Apol 90' (first DRC, concentration 10): 49% | % inhibition Apol 90' (first DRC, concentration 20): 67% | % inhibition apPOL 180' (first DRC, concentration 20): 49% | DNA Pol (primary screen value, DNA Pol): 45

O=C(c1c[nH]c2ncccc12)N1CCCC1 [Molecule 63, O=C(c1c[nH]c2c1cccn2)N1CCCC1]
DNA Pol [1]: 28 | % inhibition Apo pol 10' (DRC-1, concentration 2.5): 5.209% | % inhibition Apo pol 10' (DRC-1, concentration 5): 6.34% | % inhibition Apo pol 10' (DRC-1, concentration 10): 30.6254% | % inhibition Apo pol 10' (DRC-1, concentration 20): 50.0486% | % inhibition Apo pol 10' (DRC-1, concentration 40): 59.3862% | % inhibition Apo pol 10' (DRC-1, concentration 80): 75.2483% | % inhibition Apol 90' (DRC-1, concentration 2.5): 5.771% | % inhibition Apol 90' (DRC-1, concentration 5): 3.06% | % inhibition Apol 90' (DRC-1, concentration 10): 21.9015% | % inhibition Apol 90' (DRC-1, concentration 20): 39.4898% | % inhibition Apol 90' (DRC-1, concentration 40): 47.3849% | % inhibition Apol 90' (DRC-1, concentration 80): 77.404% | % inhibition apPOL 180' (DRC-1, concentration 2.5): 3.366% | % inhibition apPOL 180' (DRC-1, concentration 5): -1.279% | % inhibition apPOL 180' (DRC-1, concentration 10): 12.4312% | % inhibition apPOL 180' (DRC-1, concentration 20): 25.4337% | % inhibition apPOL 180' (DRC-1, concentration 40): 33.3219% | % inhibition apPOL 180' (DRC-1, concentration 80): 74.0045% | % inhibition Apo pol 5' (DRC-2, concentration 2.5): 3% | % inhibition Apo pol 5' (DRC-2, concentration 5): 10% | % inhibition Apo pol 5' (DRC-2, concentration 10): 29% | % inhibition Apo pol 5' (DRC-2, concentration 20): 40% | % inhibition Apo pol 5' (DRC-2, concentration 40): 42% | % inhibition Apo pol 5' (DRC-2, concentration 80): 32% | % inhibition Apol 40' (DRC-2, concentration 2.5): 3.74% | % inhibition Apol 40' (DRC-2, concentration 5): 11% | % inhibition Apol 40' (DRC-2, concentration 10): 33% | % inhibition Apol 40' (DRC-2, concentration 20): 50% | % inhibition Apol 40' (DRC-2, concentration 40): 62% | % inhibition Apol 40' (DRC-2, concentration 80): 58% | % inhibition ApPOL 90' (DRC-2, concentration 2.5): 2.81% | % inhibition ApPOL 90' (DRC-2, concentration 5): 10% | % inhibition ApPOL 90' (DRC-2, concentration 10): 30% | % inhibition ApPOL 90' (DRC-2, concentration 20): 49% | % inhibition ApPOL 90' (DRC-2, concentration 40): 66% | % inhibition ApPOL 90' (DRC-2, concentration 80): 65% | % inhibition apPOL 180' (DRC-2, concentration 2.5): -1% | % inhibition apPOL 180' (DRC-2, concentration 5): 3.46% | % inhibition apPOL 180' (DRC-2, concentration 10): 21% | % inhibition apPOL 180' (DRC-2, concentration 20): 41% | % inhibition apPOL 180' (DRC-2, concentration 40): 65% | % inhibition apPOL 180' (DRC-2, concentration 80): 68% | DNA Pol (primary screen value, DNA Pol): 28

C#CC(C=CC)OC(=O)c1ccccc1C(=O)O (centres unmarked) [Molecule 61, CC=CC(OC(=O)c1ccccc1C(=O)O)C#C]
DNA Pol (186 hits, DNA Pol (screen value), unit not given): 84 | DNA Pol ('DNA Pol' (screen value), unit not given): 84 | % inhibition Apo pol 10' 2.5 (DRC-1, read at 10', concentration 2.5): 8.856% | % inhibition Apo pol 10' 5 (DRC-1, read at 10', concentration 5): 15.4135% | % inhibition Apo pol 10' 10 (DRC-1, read at 10', concentration 10): 32.6686% | % inhibition Apo pol 10' 20 (DRC-1, read at 10', concentration 20): 51.5021% | % inhibition Apo pol 10' 40 (DRC-1, read at 10', concentration 40): 73.1045% | % inhibition Apo pol 10' 80 (DRC-1, read at 10', concentration 80): 83.6168% | % inhibition Apol 90' 2.5 (DRC-1, read at 90', concentration 2.5): 1.5571% | % inhibition Apol 90' 5 (DRC-1, read at 90', concentration 5): 4.145% | % inhibition Apol 90' 10 (DRC-1, read at 90', concentration 10): 16.9852% | % inhibition Apol 90' 20 (DRC-1, read at 90', concentration 20): 30.9577% | % inhibition Apol 90' 40 (DRC-1, read at 90', concentration 40): 54.6934% | % inhibition Apol 90' 80 (DRC-1, read at 90', concentration 80): 70.5531% | % inhibition apPOL 180' 2.5 (DRC-1, concentration 2.5): -3.738% | % inhibition apPOL 180' 5 (DRC-1, concentration 5): -3.151% | % inhibition apPOL 180' 10 (DRC-1, concentration 10): 5.1086% | % inhibition apPOL 180' 20 (DRC-1, concentration 20): 14.9685% | % inhibition apPOL 180' 40 (DRC-1, concentration 40): 36.8949% | % inhibition apPOL 180' 80 (DRC-1, concentration 80): 55.2706% | % inhibition Apo pol 5' (DRC-2, concentration 80): 57% | % inhibition Apol 40' (DRC-2, concentration 80): 69% | % inhibition ApPOL 90' (DRC-2, concentration 20): 48% | % inhibition ApPOL 90' (DRC-2, concentration 40): 57% | % inhibition apPOL 180' (DRC-2, concentration 2.5): -4% | % inhibition apPOL 180' (DRC-2, concentration 5): -4% | % inhibition apPOL 180' (DRC-2, concentration 40): 48% | % inhibition apPOL 180' (DRC-2, concentration 80): 69% | % inhibition Apo pol 5' 2.5 (DRC-2, read at 5', concentration 2.5): 3.3% | % inhibition Apo pol 5' 5 (DRC-2, read at 5', concentration 5): 15% | % inhibition Apo pol 5' 10 (DRC-2, read at 5', concentration 10): 33% | % inhibition Apo pol 5' 20 (DRC-2, read at 5', concentration 20): 50% | % inhibition Apo pol 5' 40 (DRC-2, read at 5', concentration 40): 54% | % inhibition Apo pol 5' 80 (DRC-2, read at 5', concentration 80): 57% | % inhibition Apol 40' 2.5 (DRC-2, read at 40', concentration 2.5): 3% | % inhibition Apol 40' 5 (DRC-2, read at 40', concentration 5): 11% | % inhibition Apol 40' 10 (DRC-2, read at 40', concentration 10): 31% | % inhibition Apol 40' 20 (DRC-2, read at 40', concentration 20): 52% | % inhibition Apol 40' 40 (DRC-2, read at 40', concentration 40): 59% | % inhibition Apol 40' 80 (DRC-2, read at 40', concentration 80): 69% | % inhibition ApPOL 90' 2.5 (DRC-2, read at 90', concentration 2.5): 0.76% | % inhibition ApPOL 90' 5 (DRC-2, read at 90', concentration 5): 5.31% | % inhibition ApPOL 90' 10 (DRC-2, read at 90', concentration 10): 26% | % inhibition ApPOL 90' 20 (DRC-2, read at 90', concentration 20): 48% | % inhibition ApPOL 90' 40 (DRC-2, read at 90', concentration 40): 57% | % inhibition ApPOL 90' 80 (DRC-2, read at 90', concentration 80): 71% | % inhibition apPOL 180' 2.5 (DRC-2, concentration 2.5): -4% | % inhibition apPOL 180' 5 (DRC-2, concentration 5): -4% | % inhibition apPOL 180' 10 (DRC-2, concentration 10): 13% | % inhibition apPOL 180' 20 (DRC-2, concentration 20): 35% | % inhibition apPOL 180' 40 (DRC-2, concentration 40): 48% | % inhibition apPOL 180' 80 (DRC-2, concentration 80): 69%
